Patent publication US20180303812A1, “PHARMACEUTICAL COMPOSITION FOR USE IN TREATING AML AND METHOD OF TREATING AML IN A SUBJECT IN NEED THEREOF” (DAIICHI SANKYO COMPANY, LIMITED, priority 2015, published 2018)

Assays:
[1] = test system: AML samples (mononuclear cells from peripheral blood or bone marrow of AML patients); assay: Ex vivo treatment of primary AML patient samples; live cells by annexin V / propidium iodide binding assays; assay type: cell-based, human
Protocol: Leukemia samples isolated from peripheral blood or bone marrow of patients with newly diagnosed or relapsed/refractory AML were treated using the test compound as described below.
Heparinized peripheral blood and bone marrow samples containing more than 1.6×10^7 mononuclear cells were obtained from AML patients with newly diagnosed or relapsed/refractory AML, after informed consent according to the University of Texas MD Anderson Cancer Center (MDA, Houston, Tex., USA) guidelines in accordance with the Declaration of Helsinki. In each sample, the blast counts (blast %) was determined from routine morphological differential counts by clinical laboratory technicians, confirmed by hematopathologists at MDA (usually 500 cells were counted). […]
Mononuclear cells were purified by density-gradient centrifugation. The cells were cultured in RPMI 1640 medium containing 10% fetal bovine serum and were treated ex vivo for 48 hours with the test compound (0, 25, 50, 100, 250, 500, or 1000 nM), and live cell numbers were determined by apoptosis analysis using annexin V and propidium iodide (PI, purchased from Sigma-Aldrich) binding assays. Annexin V- and PI-negative cells were counted as live cells. Apoptosis was quantified as the proportion of annexin V-positive cells, and specific apoptosis was calculated by the following formula: % specific apoptosis=(test−control)×100/(100−control). […]

AML = AML patients; cited from earlier work

Compound: CC1(C)CCC2(CC1)N[C@@H](C(=O)N[C@@H]1CC[C@@H](C(N)=O)OC1)[C@H](c1ccnc(Cl)c1F)[C@]21C(=O)Nc2cc(Cl)ccc21.Cc1ccc(S(=O)(=O)O)cc1 [Compound 2, (3′R,4′S,5′R)—N-[(3R,6S)-6-carbamoyltetrahydro-2H-pyran-3-yl]-6″-chloro-4′-(2-chloro-3-fluoropyridin-4-yl)-4,4-dimethyl-2″-oxo-1″,2″-dihydrodispiro[cyclohexane-1,2′-pyrrolidine-3′,3″-indole]-5′-carboxamide mono(4-methylbenzenesulfonate) monohydrate]
- leukemia cells induce apoptosis ([1]; in other samples): less than 20%
- leukemia cells induced apoptosis ([1]; in some of the samples, at a higher concentration): more than 80%

Compound: CCOc1cc(C(C)(C)C)ccc1C1=N[C@@](C)(c2ccc(Cl)cc2)[C@@](C)(c2ccc(Cl)cc2)N1C(=O)N1CCN(CCCS(C)(=O)=O)CC1 [RG7112]
- clinical response (AML): clinical responses including complete remissions
